Results reported in ChEMBL document CHEMBL4330075, “Discovery of Novel Quinoline-Chalcone Derivatives as Potent Antitumor Agents with Microtubule Polymerization Inhibitory Activity” (J Med Chem, 2019).
Values after ≈ are worked out from the molar mass of the structure shown.

Experiments:
[1] = test system: K562; assay: Cell cycle arrest in human K562 cells assessed as accumulation of cells at G2 phase at 20 nM after 48 hrs by propidium iodide staining-based flow cytometric analysis (reference value: 15.82%); type: functional
[2] = test system: K562; assay: Cell cycle arrest in human K562 cells assessed as accumulation of cells at S phase at 20 nM after 48 hrs by propidium iodide staining-based flow cytometric analysis (reference value: 36.27%); type: functional
[3] = test system: K562; assay: Cell cycle arrest in human K562 cells assessed as accumulation of cells at G1 phase at 20 nM after 48 hrs by propidium iodide staining-based flow cytometric analysis (reference value: 47.91%); type: functional
[4] = test system: K562; assay: Cell cycle arrest in human K562 cells assessed as accumulation of cells at S phase at 10 nM after 48 hrs by propidium iodide staining-based flow cytometric analysis (reference value: 36.27%); type: functional
[5] = test system: K562; assay: Cell cycle arrest in human K562 cells assessed as accumulation of cells at G1 phase at 10 nM after 48 hrs by propidium iodide staining-based flow cytometric analysis (reference value: 47.91%); type: functional
[6] = test system: K562; assay: Antiproliferative activity against human K562 cells after 72 hrs by MTT assay; type: functional, cell-based; settings: K562, 72 h
[7] = test system: KB; assay: Antiproliferative activity against human KB cells after 72 hrs by MTT assay; type: functional, cell-based
[8] = test system: HCT-8; assay: Antiproliferative activity against human HCT8 cells after 72 hrs by MTT assay; type: functional, cell-based; settings: HCT-8, 72 h
[9] = test system: MDA-MB-231; assay: Antiproliferative activity against human MDA-MB-231 cells after 72 hrs by MTT assay; type: functional, cell-based; settings: MDA-MB-231, 72 h
[10] = test system: L02; assay: Cytotoxicity against human LO2 cells after 72 hrs by MTT assay; type: cell-based; settings: L02, 72 h
[11] = Selectivity index, ratio of IC50 for human LO2 cells to IC50 for human HepG2 cells; type: toxicity; settings: LO2 cells and HepG2 cells, read-out: Ratio IC50
[12] = test system: K562; assay: Cell cycle arrest in human K562 cells assessed as accumulation of cells at G1 phase at 5 nM after 48 hrs by propidium iodide staining-based flow cytometric analysis (reference value: 47.91%); type: functional
[13] = test system: K562; assay: Cell cycle arrest in human K562 cells assessed as accumulation of cells at S phase at 5 nM after 48 hrs by propidium iodide staining-based flow cytometric analysis (reference value: 36.27%); type: functional
[14] = test system: K562; assay: Induction of apoptosis in human K562 assessed as late apoptotic cells at 5 nM after 48 hrs by Annexin V-APC/propidium iodide staining-based flow cytometric analysis (reference value: 1.30%); type: functional
[15] = test system: K562; assay: Induction of apoptosis in human K562 assessed as viable cells at 10 nM after 48 hrs by Annexin V-APC/propidium iodide staining-based flow cytometric analysis (reference value: 92.34%); type: functional; settings: K562, 48 h, read-out: Activity
[16] = test system: K562; assay: Induction of apoptosis in human K562 assessed as early apoptotic cells at 10 nM after 48 hrs by Annexin V-APC/propidium iodide staining-based flow cytometric analysis (reference value: 4.44%); type: functional
[17] = test system: K562; assay: Induction of apoptosis in human K562 assessed as late apoptotic cells at 10 nM after 48 hrs by Annexin V-APC/propidium iodide staining-based flow cytometric analysis (reference value: 1.30%); type: functional
[18] = test system: K562; assay: Induction of apoptosis in human K562 assessed as necrotic cells at 10 nM after 48 hrs by Annexin V-APC/propidium iodide staining-based flow cytometric analysis (reference value: 1.92%); type: functional
[19] = test system: K562; assay: Induction of apoptosis in human K562 assessed as viable cells at 20 nM after 48 hrs by Annexin V-APC/propidium iodide staining-based flow cytometric analysis (reference value: 92.34%); type: functional; settings: K562, 48 h, read-out: Activity
[20] = test system: K562; assay: Induction of apoptosis in human K562 assessed as early apoptotic cells at 20 nM after 48 hrs by Annexin V-APC/propidium iodide staining-based flow cytometric analysis (reference value: 4.44%); type: functional
[21] = test system: K562; assay: Induction of apoptosis in human K562 assessed as late apoptotic cells at 20 nM after 48 hrs by Annexin V-APC/propidium iodide staining-based flow cytometric analysis (reference value: 1.30%); type: functional
[22] = test system: K562; assay: Induction of apoptosis in human K562 assessed as necrotic cells at 20 nM after 48 hrs by Annexin V-APC/propidium iodide staining-based flow cytometric analysis (reference value: 1.92%); type: functional
[23] = test system: K562; assay: Induction of mitochondrial membrane potential disruption in human K562 cells assessed as intact mitochondrial membrane potential at 10 nM after 48 hrs by JC-1 staining-based flow cytometric analysis (reference value: 99.12%); type: functional
[24] = test system: K562; assay: Induction of mitochondrial membrane potential disruption in human K562 cells assessed as intact mitochondrial membrane potential at 5 nM after 48 hrs by JC-1 staining-based flow cytometric analysis (reference value: 99.12%); type: functional
[25] = test system: K562; assay: Induction of mitochondrial membrane potential disruption in human K562 cells assessed as collapsed mitochondrial membrane potential at 20 nM after 48 hrs by JC-1 staining-based flow cytometric analysis (reference value: 0.63%); type: functional
[26] = Aqueous solubility in pH 7.4 phosphate buffer by HPLC analysis; type: physicochemical
[27] = Toxicity in ICR mouse assessed as mouse survival at 409.6 mg/kg, iv for 14 days relative to control; type: organism-based; settings: in vivo
[28] = Toxicity in ICR mouse assessed as mouse survival at 512 mg/kg, iv for 14 days relative to control; type: organism-based; settings: in vivo
[29] = Toxicity in ICR mouse assessed as mouse survival at 640 mg/kg, iv for 14 days relative to control; type: organism-based; settings: in vivo
[30] = Toxicity in ICR mouse assessed as mouse survival at 800 mg/kg, iv for 14 days relative to control; type: organism-based; settings: in vivo
[31] = Toxicity in ICR mouse assessed as mouse survival at 1000 mg/kg, iv for 14 days relative to control; type: organism-based; settings: in vivo
[32] = Antitumor activity against […] H22 cells xenografted in ICR mouse assessed as reduction in tumor weight at 20 mg/kg, iv qd for 21 consecutive days and measured every 2 days relative to control; type: functional; design: scale not given: the % may be the effect or the level left
[33] = Toxicity in ICR mouse xenografted with […] cells assessed as decrease in body weight at 10 to 20 mg/kg, iv qd administered for 21 days and measured every 2 days; type: organism-based; settings: in vivo
[34] = Cardiotoxicity in ICR mouse xenografted with […] cells at 10 to 20 mg/kg, iv qd for 21 consecutive days by H and E staining-based assay; type: toxicity, organism-based; settings: in vivo
[35] = Hepatotoxicity in ICR mouse xenografted with […] cells at 10 to 20 mg/kg, iv qd for 21 consecutive days by H and E staining-based assay; type: toxicity, organism-based; settings: in vivo
[36] = Toxicity in ICR mouse xenografted with […] cells assessed as effect on lung at 10 to 20 mg/kg, iv qd for 21 consecutive days by H and E staining-based assay; type: organism-based; settings: in vivo
[37] = Renal toxicity in ICR mouse xenografted with […] cells at 10 to 20 mg/kg, iv qd for 21 consecutive days by H and E staining-based assay; type: organism-based; settings: in vivo
[38] = Cytotoxicity against human MDA-MB-231 cells assessed as growth inhibition at 10 nM after 48 hrs; type: cell-based; settings: read-out: GI
[39] = test system: HepG2; assay: cells; settings: Homo sapiens, HepG2, 72 h

Question: For `COc1ccc(/C=C(\C)C(=O)c2cc(C)nc3ccccc23)cc1O`, which Activity [1] is on record?
Answer: 26.98%

Question: And the Activity [2]?
Answer: 30.35%

Question: And the Activity [3]?
Answer: 42.68%

Question: What about the Activity [4] of the same molecule?
Answer: 24.94%

Question: What about the Activity [5] of the same molecule?
Answer: 52.22%

Question: What about the IC50 [6] of the same molecule?
Answer: 9 nM

Question: And the IC50 [7]?
Answer: 16 nM

Question: What about the IC50 [8] of the same molecule?
Answer: 15 nM

Question: What about the IC50 [9] of the same molecule?
Answer: 15 nM

Question: What about the IC50 [10] of the same molecule?
Answer: 987 nM

Question: What about the selectivity ratio [11] of the same molecule?
Answer: 65.8

Question: What about the Activity [12] of the same molecule?
Answer: 50.41%

Question: And the Activity [13]?
Answer: 31.55%

Question: What about the Activity [14] of the same molecule?
Answer: 4.34%

Question: And the viability at 0.01 µM [15]?
Answer: 62.7%

Question: What about the Activity [16] of the same molecule?
Answer: 23.15%

Question: And the Activity [17]?
Answer: 11.4%

Question: What about the Activity [18] of the same molecule?
Answer: 2.77%

Question: And the viability at 0.02 µM [19]?
Answer: 35%

Question: And the Activity [20]?
Answer: 36.86%

Question: And the Activity [21]?
Answer: 23.28%

Question: What about the Activity [22] of the same molecule?
Answer: 4.86%

Question: What about the Activity [23] of the same molecule?
Answer: 73.8%

Question: And the Activity [24]?
Answer: 84.97%

Question: What about the Activity [25] of the same molecule?
Answer: 53.39%

Question: What about the solubility [26] of the same molecule?
Answer: 16 µg/mL (≈ 48 µM)

Question: What about the survival at 336 h [27] of the same molecule?
Answer: 90%

Question: What about the survival at 336 h [28] of the same molecule?
Answer: 80%

Question: And the survival at 336 h [29]?
Answer: 60%

Question: And the survival at 336 h [30]?
Answer: 30%

Question: What about the survival at 336 h [31] of the same molecule?
Answer: 10%

Question: What about the Activity [32] of the same molecule?
Answer: 65.3%

Question: And the Activity [33]?
Answer: Non-Toxic

Question: And the Activity [34]?
Answer: Non-Toxic

Question: What about the Activity [35] of the same molecule?
Answer: Non-Toxic

Question: And the Activity [36]?
Answer: Non-Toxic

Question: What about the Activity [37] of the same molecule?
Answer: Non-Toxic

Question: What about the inhibition at 48 h, 0.01 µM [38] of the same molecule?
Answer: < 10%

Question: What about the IC50 [39] of the same molecule?
Answer: 15 nM
